Measured values as given in patent US4889906A, “Amine salts of 1,4,2-oxazaphospholidine-4-acetic acid, 2-alkoxy-2-oxides” (Monsanto Company, priority 1988, dated 1989).
Values joined by “and” are separate entries in the source; they are usually repeats but may differ in a detail not shown here. Equal values may be shown once. Where a name gives a salt, the structure may show the parent alone.

How the values were obtained:
Assay type in all cases: in vivo
[1] = tested on: plants; assay: Biological activity, greenhouse tests according to Examples 3 and 4; details: according to the procedure of Examples 3 and 4
Excerpt: Top soil was placed in pans having holes in the bottom and compacted to a depth of 0.95 to 1.27 cm from the top of the pan. A predetermined number of seeds of each of several plant species or vegetative propagules for perennial plant species were placed on the soil and pressed into the soil surface. The seeds or propagules were covered with soil and leveled. The pans were then placed on a bench in the greenhouse and watered as needed for germination and growth. After the plants reached the desired age (2 to 3 weeks) each pan, except the control pans, was removed to a spraying chamber and sprayed by means of an atomizer. In the spray solution, an emulsifying agent was added to give a spray solution which contains about 0.4% by volume of the emulsifier. The spray solution contained a sufficient amount of the compound of Example 1 to give an application rate of the active ingredient of 2.8 g/m^2 (25 lbs. per acre) and 5.6 g/mz (50 lbs. per acre), while applying a total amount of solution equivalent to 187 ml/m^2 (200 gal per acre). […]
Established stands of fescue (Kentucky bluegrass No. 31) in pots having an area of about 100 cm (16 square inches) were trimmed to a uniform height. […] After two weeks, the height of the grass was measured. […]

[2] = tested on: fescue (Kentucky bluegrass No. 31); assay: Plant growth regulating activity, greenhouse; details: 0.56 g/m^2 (5 lbs. per acre), two weeks
Protocol: Established stands of fescue (Kentucky bluegrass No. 31) in pots having an area of about 100 cm (16 square inches) were trimmed to a uniform height. Duplicate pots were removed to a spraying chamber and sprayed by means of an atomizer as in Example 3. The application rate of the active ingredient was 0.56 g/m^2 (5 lbs. per acre) while applying a total amount of solution equivalent to 187 ml/m^2 (200 gal/acre). The pots were returned to the greenhouse and watered with the controls on a daily basis. After two weeks, the height of the grass was measured.

[3] = tested on: Morningglory; assay: Post-emergent herbicide activity, greenhouse; details: 5.6 g/m^2
Excerpt: (§1) Top soil was placed in pans having holes in the bottom and compacted to a depth of 0.95 to 1.27 cm from the top of the pan. A predetermined number of seeds of each of several plant species or vegetative propagules for perennial plant species were placed on the soil and pressed into the soil surface. The seeds or propagules were covered with soil and leveled. The pans were then placed on a bench in the greenhouse and watered as needed for germination and growth. After the plants reached the desired age (2 to 3 weeks) each pan, except the control pans, was removed to a spraying chamber and sprayed by means of an atomizer. In the spray solution, an emulsifying agent was added to give a spray solution which contains about 0.4% by volume of the emulsifier. The spray solution contained a sufficient amount of the compound of Example 1 to give an application rate of the active ingredient of 2.8 g/m^2 (25 lbs. per acre) and 5.6 g/mz (50 lbs. per acre), while applying a total amount of solution equivalent to 187 ml/m^2 (200 gal per acre). The pans were returned to the greenhouse and watered as before, and the injury to the plants as compared to those in control pans was observed after 14 days after spraying, and again, 27 days after spraying.

[4] = tested on: Velvetleaf; assay: Post-emergent herbicide activity, greenhouse; details: 5.6 g/m^2
Excerpt: as §1

[5] = tested on: Yellow Nutsedge; assay: Post-emergent herbicide activity, greenhouse; details: 5.6 g/m^2
Excerpt: as §1

[6] = tested on: Barnyardgrass; assay: Post-emergent herbicide activity, greenhouse; details: 5.6 g/m^2
Excerpt: as §1

[7] = tested on: Cocklebur; assay: Post-emergent herbicide activity, greenhouse; details: 5.6 g/m^2
Excerpt: as §1

[8] = tested on: Downy Brome; assay: Post-emergent herbicide activity, greenhouse; details: 5.6 g/m^2
Excerpt: as §1

[9] = tested on: Common Lambsquarters; assay: Post-emergent herbicide activity, greenhouse; details: 5.6 g/m^2
Excerpt: as §1

[10] = tested on: Quackgrass; assay: Post-emergent herbicide activity, greenhouse; details: 5.6 g/m^2
Excerpt: as §1

[11] = tested on: Rhizone Johnsongrass; assay: Post-emergent herbicide activity, greenhouse; details: 5.6 g/m^2
Excerpt: as §1

[12] = tested on: Pennsylvania Smartweed; assay: Post-emergent herbicide activity, greenhouse; details: 5.6 g/m^2
Excerpt: as §1

[13] = tested on: Canada Thistle; assay: Post-emergent herbicide activity, greenhouse; details: 5.6 g/m^2
Excerpt: as §1

COP1(=O)CN(CC(=O)O)CO1 (stereo not drawn) [Example 5, Triisopropylamine Salt of 1,4,2-Oxazaphospholidine-4-Acetic Acid, 2-Methoxy-2-Oxide]
biological activity (post-emergent herbicide and plant growth regulating), in words [1]: Satisfactory results are achieved

COP1(=O)CN(CC(=O)O)CO1 (stereo not drawn) [Example 1, triethylamine salt of 1,4,2-oxazaphospholidine-4-acetic acid, 2-methoxy-2-oxide]
average growth rate of treated fescue relative to controls [2]: 43 % of the controls
growth of treated grass over two-week period ([2]; duplicate pots, control pots grew average 199.58 mm): 80 mm and 90 mm
discoloration or other sign of phytotoxicity ([2]; fescue): did not show any discoloration or other sign of phytotoxicity
Plant Response After 14 Days ([3]; 14 days after spraying): 1 (25-49% inhibition)
Plant Response After 27 Days ([3]; 27 days after spraying): 1 (25-49% inhibition)
Plant Response After 14 Days ([4]; 14 days after spraying): 0 (0-24% inhibition)
Plant Response After 27 Days ([4]; 27 days after spraying): 0 (0-24% inhibition)
Plant Response After 14 Days ([5]; 14 days after spraying): 0 (0-24% inhibition)
Plant Response After 27 Days ([5]; 27 days after spraying): 1 (25-49% inhibition)
Plant Response After 14 Days ([6]; 14 days after spraying): 1 (25-49% inhibition)
Plant Response After 27 Days ([6]; 27 days after spraying): 1 (25-49% inhibition)
Plant Response After 14 Days ([7]; 14 days after spraying): 1 (25-49% inhibition)
Plant Response After 27 Days ([7]; 27 days after spraying): 1 (25-49% inhibition)
Plant Response After 14 Days ([8]; 14 days after spraying): 0 (0-24% inhibition)
Plant Response After 27 Days ([8]; 27 days after spraying): 0 (0-24% inhibition)
Plant Response After 14 Days ([9]; 14 days after spraying): 0 (0-24% inhibition)
Plant Response After 27 Days ([9]; 27 days after spraying): 0 (0-24% inhibition)
Plant Response After 14 Days ([10]; 14 days after spraying): 0 (0-24% inhibition)
Plant Response After 27 Days ([10]; 27 days after spraying): 1 (25-49% inhibition)
Plant Response After 14 Days ([11]; 14 days after spraying): 0 (0-24% inhibition)
Plant Response After 27 Days ([11]; 27 days after spraying): 0 (0-24% inhibition)
Plant Response After 14 Days ([12]; 14 days after spraying): 0 (0-24% inhibition)
Plant Response After 27 Days ([12]; 27 days after spraying): 0 (0-24% inhibition)
Plant Response After 14 Days ([13]; 14 days after spraying): 0 (0-24% inhibition)
Plant Response After 27 Days ([13]; 27 days after spraying): 0 (0-24% inhibition)

COP1(=O)CN(CC(=O)O)CO1 (stereo not drawn) [Example 2, 1,4,2-oxazaphospholidine-4-acetic acid, 2-alkoxy-2-oxide]
biological activity (post-emergent herbicide and plant growth regulating), in words [1]: Satisfactory results are achieved
